Assay results as given in PubChem BioAssay AID1259407 (Chemical Carcinogenesis Research Information System (CCRIS), 2018).
Calls of active or inactive are those of the source. The rule behind the calls is not given here.

System: CCRIS mutagenicity, Ames/micronucleus/aberration tests
Experiment: CCRIS mutagenicity studies
[1] = Test System: AMES SALMONELLA TYPHIMURIUM, Strain/Indicator: TA98, Metabolic Activation: NONE, Method: PREINCUBATION
[2] = Test System: AMES SALMONELLA TYPHIMURIUM, Strain/Indicator: TA100, Metabolic Activation: NONE, Method: PREINCUBATION
[3] = Test System: AMES SALMONELLA TYPHIMURIUM, Strain/Indicator: TA1535, Metabolic Activation: NONE, Method: PREINCUBATION
[4] = Test System: AMES SALMONELLA TYPHIMURIUM, Strain/Indicator: TA1537, Metabolic Activation: NONE, Method: PREINCUBATION
[5] = Test System: AMES SALMONELLA TYPHIMURIUM, Strain/Indicator: TA100, Metabolic Activation: RAT, LIVER, S-9, AROCLOR 1254, Method: STANDARD PLATE

**Q.** How did the mutagenic call [1] turn out when `O=C(O)C(F)(F)C(F)(Cl)C(F)(F)C(F)(Cl)C(F)(F)Cl` (stereo not given) was run?
**A.** inactive; negative

**Q.** And the mutagenic call (Test System: AMES SALMONELLA TYPHIMURIUM, Strain/Indicator: TA98, Metabolic Activation: RAT, LIVER, S-9, Method: PREINCUBATION)?
**A.** inactive; negative

**Q.** What about the mutagenic call [2] of the same compound?
**A.** inactive; negative

**Q.** What about the mutagenic call (Test System: AMES SALMONELLA TYPHIMURIUM, Strain/Indicator: TA100, Metabolic Activation: RAT, LIVER, S-9, Method: PREINCUBATION) of the same compound?
**A.** inactive; negative

**Q.** What about the mutagenic call [3] of the same compound?
**A.** inactive; negative

**Q.** What about the mutagenic call (Test System: AMES SALMONELLA TYPHIMURIUM, Strain/Indicator: TA1535, Metabolic Activation: RAT, LIVER, S-9, Method: PREINCUBATION) of the same compound?
**A.** inactive; negative

**Q.** And the mutagenic call [4]?
**A.** inactive; negative

**Q.** What about the mutagenic call (Test System: AMES SALMONELLA TYPHIMURIUM, Strain/Indicator: TA1537, Metabolic Activation: RAT, LIVER, S-9, Method: PREINCUBATION) of the same compound?
**A.** inactive; negative

**Q.** And the mutagenic call (Test System: AMES SALMONELLA TYPHIMURIUM, Strain/Indicator: TA1538, Metabolic Activation: NONE, Method: PREINCUBATION)?
**A.** inactive; negative

**Q.** What about the mutagenic call (Test System: AMES SALMONELLA TYPHIMURIUM, Strain/Indicator: TA1538, Metabolic Activation: RAT, LIVER, S-9, Method: PREINCUBATION) of the same compound?
**A.** inactive; negative

**Q.** What about the mutagenic call (Test System: CHINESE HAMSTER OVARY, Strain/Indicator: CHO-K1-BH4 (HGPRT), Metabolic Activation: NONE, Method: STANDARD PLATE) of the same compound?
**A.** inactive; negative

**Q.** What about the mutagenic call (Test System: CHINESE HAMSTER OVARY, Strain/Indicator: CHO-K1-BH4 (HGPRT), Metabolic Activation: RAT, LIVER, S-9, Method: STANDARD PLATE) of the same compound?
**A.** inactive; negative

**Q.** And the mutagenic call (Test System: UDS RODENT HEPATOCYTES, Strain/Indicator: THY INCORP (NON-S-PHASE), Metabolic Activation: NONE, Method: AUTORADIOGRAPHY)?
**A.** inactive; negative

**Q.** How did the mutagenic call [5] turn out when `CC1c2ccccc2-c2ccccc21` was run?
**A.** active; positive

**Q.** Which results are given for `O[C@H]1C=Cc2c(cc3ccc4cccc5ccc2c3c45)[C@@H]1O`?
**A.** mutagenic call (Test System: AMES SALMONELLA TYPHIMURIUM, Strain/Indicator: TA97, Metabolic Activation: RAT, LIVER, S-9, AROCLOR 1254, Method: STANDARD PLATE): active; positive; mutagenic call (Test System: AMES SALMONELLA TYPHIMURIUM, Strain/Indicator: TA98, Metabolic Activation: NONE, Method: HOST-MEDIATED): active; positive; mutagenic call (Test System: AMES SALMONELLA TYPHIMURIUM, Strain/Indicator: TA98, Metabolic Activation: RAT, LIVER, 3-METHYLCHOLANTHRENE, Method: LIQUID SUSPENSION): active; positive; mutagenic call (Test System: AMES SALMONELLA TYPHIMURIUM, Strain/Indicator: TA98, Metabolic Activation: RAT, LIVER, S-9, AROCLOR 1254, Method: STANDARD PLATE): active; positive; mutagenic call (Test System: AMES SALMONELLA TYPHIMURIUM, Strain/Indicator: TA98, Metabolic Activation: RAT, LIVER, S-9, Method: STANDARD PLATE): active; positive; mutagenic call (Test System: AMES SALMONELLA TYPHIMURIUM, Strain/Indicator: TA100, Metabolic Activation: EPITHELIAL CELL-MEDIATED, AROCLOR 1254, Method: PREINCUBATION): active; positive; mutagenic call (Test System: AMES SALMONELLA TYPHIMURIUM, Strain/Indicator: TA100, Metabolic Activation: EPITHELIAL CELL-MEDIATED, NADPH, Method: PREINCUBATION): active; positive; mutagenic call (Test System: AMES SALMONELLA TYPHIMURIUM, Strain/Indicator: TA100, Metabolic Activation: EPITHELIAL CELL-MEDIATED, Method: PREINCUBATION): active; positive; mutagenic call (Test System: AMES SALMONELLA TYPHIMURIUM, Strain/Indicator: TA100, Metabolic Activation: KUPFFER CELL-MEDIATED, AROCLOR 1254, Method: PREINCUBATION): active; positive; mutagenic call (Test System: AMES SALMONELLA TYPHIMURIUM, Strain/Indicator: TA100, Metabolic Activation: KUPFFER CELL-MEDIATED, NADPH, Method: PREINCUBATION): active; positive; mutagenic call (Test System: AMES SALMONELLA TYPHIMURIUM, Strain/Indicator: TA100, Metabolic Activation: KUPFFER CELL-MEDIATED, Method: PREINCUBATION): active; positive; mutagenic call (Test System: AMES SALMONELLA TYPHIMURIUM, Strain/Indicator: TA100, Metabolic Activation: NONE, Method: HOST-MEDIATED): active; positive; mutagenic call (Test System: AMES SALMONELLA TYPHIMURIUM, Strain/Indicator: TA100, Metabolic Activation: PARENCHYMAL CELL-MEDIATED, AROCLOR 1254, Method: PREINCUBATION): active; positive; mutagenic call (Test System: AMES SALMONELLA TYPHIMURIUM, Strain/Indicator: TA100, Metabolic Activation: PARENCHYMAL CELL-MEDIATED, NADPH, Method: PREINCUBATION): active; positive; mutagenic call (Test System: AMES SALMONELLA TYPHIMURIUM, Strain/Indicator: TA100, Metabolic Activation: PARENCHYMAL CELL-MEDIATED, Method: PREINCUBATION): active; positive; mutagenic call [5]: active; positive; mutagenic call (Test System: AMES SALMONELLA TYPHIMURIUM, Strain/Indicator: TA100, Metabolic Activation: RAT, LIVER, S-9, Method: STANDARD PLATE): active; positive; mutagenic call (Test System: AMES SALMONELLA TYPHIMURIUM, Strain/Indicator: TA1537, Metabolic Activation: RAT, LIVER, S-9 AROCLOR 1254, Method: STANDARD PLATE): inactive; negative; mutagenic call (Test System: AMES SALMONELLA TYPHIMURIUM, Strain/Indicator: TA1538, Metabolic Activation: NONE, Method: HOST-MEDIATED): inactive; negative; mutagenic call (Test System: AMES SALMONELLA TYPHIMURIUM, Strain/Indicator: TA1538, Metabolic Activation: RAT, LIVER, S-9, Method: STANDARD PLATE): active; positive; mutagenic call (Test System: CHINESE HAMSTER V-79, Strain/Indicator: V-79/6-THIOGUANINE, Metabolic Activation: RAT, LIVER, S-9, AROCLOR 1254): active; positive; mutagenic call (Test System: CHINESE HAMSTER V-79, Strain/Indicator: V-79/8-AZAGUANINE, Metabolic Activation: CELL-MEDIATED, Method: STANDARD PLATE): active; positive; mutagenic call (Test System: CHINESE HAMSTER V-79, Strain/Indicator: V-79/8-AZAGUANINE, Metabolic Activation: NONE, Method: STANDARD PLATE): active; positive; mutagenic call (Test System: CHINESE HAMSTER V-79, Strain/Indicator: V-79/OUABAIN, Metabolic Activation: CELL-MEDIATED, Method: STANDARD PLATE): active; positive; mutagenic call (Test System: CHINESE HAMSTER V-79, Strain/Indicator: V-79/OUABAIN, Metabolic Activation: HAMSTER, EMBRYO, CELL-MEDIATED, Method: STANDARD PLATE): active; positive

**Q.** `CN[C@@H]1[C@H](O[C@H]2[C@H](O[C@H]3[C@H](O)[C@@H](O)[C@H](N=C(N)N)[C@@H](O)[C@@H]3N=C(N)N)O[C@@H](C)[C@]2(O)C=O)O[C@@H](CO)[C@H](O)[C@H]1O` was tested. Which mutagenic call (Test System: AMES SALMONELLA TYPHIMURIUM, Strain/Indicator: TA98, Metabolic Activation: HAMSTER, LIVER, S-9, AROCLOR 1254, Method: PREINCUBATION) did it give?
**A.** inactive; negative

**Q.** What about the mutagenic call [1] of the same compound?
**A.** inactive; negative

**Q.** What about the mutagenic call (Test System: AMES SALMONELLA TYPHIMURIUM, Strain/Indicator: TA98, Metabolic Activation: RAT, LIVER, S-9, AROCLOR 1254, Method: PREINCUBATION) of the same compound?
**A.** inactive; negative

**Q.** And the mutagenic call (Test System: AMES SALMONELLA TYPHIMURIUM, Strain/Indicator: TA100, Metabolic Activation: HAMSTER, LIVER, S-9, AROCLOR 1254, Method: PREINCUBATION)?
**A.** inactive; negative

**Q.** What about the mutagenic call [2] of the same compound?
**A.** inactive; negative

**Q.** What about the mutagenic call (Test System: AMES SALMONELLA TYPHIMURIUM, Strain/Indicator: TA100, Metabolic Activation: RAT, LIVER, S-9, AROCLOR 1254, Method: PREINCUBATION) of the same compound?
**A.** inactive; negative

**Q.** What about the mutagenic call (Test System: AMES SALMONELLA TYPHIMURIUM, Strain/Indicator: TA102, Metabolic Activation: NONE, Method: STANDARD PLATE) of the same compound?
**A.** active; positive

**Q.** What about the mutagenic call (Test System: AMES SALMONELLA TYPHIMURIUM, Strain/Indicator: TA102, Metabolic Activation: RAT, LIVER, S-9, AROCLOR 1254, Method: STANDARD PLATE) of the same compound?
**A.** active; positive

**Q.** And the mutagenic call (Test System: AMES SALMONELLA TYPHIMURIUM, Strain/Indicator: TA1535, Metabolic Activation: HAMSTER, LIVER, S-9, AROCLOR 1254, Method: PREINCUBATION)?
**A.** inactive; negative

**Q.** And the mutagenic call [3]?
**A.** inactive; negative

**Q.** What about the mutagenic call (Test System: AMES SALMONELLA TYPHIMURIUM, Strain/Indicator: TA1535, Metabolic Activation: RAT, LIVER, S-9, AROCLOR 1254, Method: PREINCUBATION) of the same compound?
**A.** inactive; negative

**Q.** And the mutagenic call (Test System: AMES SALMONELLA TYPHIMURIUM, Strain/Indicator: TA1537, Metabolic Activation: HAMSTER, LIVER, S-9, AROCLOR 1254, Method: PREINCUBATION)?
**A.** inactive; negative

**Q.** What about the mutagenic call [4] of the same compound?
**A.** inactive; negative

**Q.** What about the mutagenic call (Test System: AMES SALMONELLA TYPHIMURIUM, Strain/Indicator: TA1537, Metabolic Activation: RAT, LIVER, S-9, AROCLOR 1254, Method: PREINCUBATION) of the same compound?
**A.** inactive; negative

**Q.** What about the mutagenic call (Test System: AMES SALMONELLA TYPHIMURIUM, Strain/Indicator: TA2638A, Metabolic Activation: NONE, Method: STANDARD PLATE) of the same compound?
**A.** inactive; negative

**Q.** Which mutagenic call (Test System: AMES SALMONELLA TYPHIMURIUM, Strain/Indicator: TA98, Metabolic Activation: NONE, Method: SPOT TEST) does the source give for `O=C1c2ccccc2C(=O)N1CCCN1c2ccccc2Sc2ccc(Cl)cc21` here?
**A.** inactive; negative
